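Test compounds were applied to cells in 96-well plates for 48 hours at 5 doses. Here, GI50 denotes the concentration required for 50% inhibition of growth.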 Activity calls are given as the source filed them. No stated cut-off is given here; in the data, active = GI50 up to about 1.1 µM and inactive = higher.
Columns and labels:
Experiment in all cases: NCI-60 cell line screen, 48 h
A549 = tested on: A549
HT-29 = tested on: HT-29
T47D = tested on: T47D
786-0 = tested on: 786-0
SF-539 = tested on: SF-539
SF-295 = tested on: SF-295
SNB-19 = tested on: SNB-19
SNB-75 = tested on: SNB-75
HL-60 = tested on: HL-60
SF-268 = tested on: SF-268
SK-MEL-2 = tested on: SK-MEL-2
MDA-MB-231 = tested on: MDA-MB-231
CAKI-1 = tested on: CAKI-1
DU-145 = tested on: DU-145
UACC-257 = tested on: UACC-257
TK-10 = tested on: TK-10
SK-MEL-5 = tested on: SK-MEL-5
M14 = tested on: M14
MDA-N = tested on: MDA-N

Measured: GI50

CC(C)=CCC[C@@H](C)C1=C(O)C(=O)C(C)=C(Nc2ccccc2Br)C1=O
inactive: A549 17.8 µM | HT-29 19.6 µM | T47D 13.8 µM | 786-0 13.3 µM | SF-539 8.59 µM | SF-295 3.85 µM | SNB-19 16.4 µM | SNB-75 15.4 µM | HL-60 2.73 µM | SF-268 7.89 µM | SK-MEL-2 13.3 µM | MDA-MB-231 20.7 µM | CAKI-1 18.6 µM | DU-145 14.4 µM | UACC-257 14.9 µM | TK-10 22.4 µM | SK-MEL-5 11.5 µM | M14 15.2 µM | MDA-N 14.1 µM

CC1(C)CC(=O)C(CCC(=O)/C=C/c2ccccc2)C(=O)C1
inactive: A549 > 100 µM | HT-29 > 100 µM | T47D > 100 µM | 786-0 > 100 µM | SF-539 > 100 µM | SF-295 > 100 µM | SNB-19 > 76.4 µM | SNB-75 > 100 µM | HL-60 2.51 µM | SF-268 > 100 µM | SK-MEL-2 > 100 µM | MDA-MB-231 > 100 µM | CAKI-1 > 100 µM | DU-145 > 100 µM | UACC-257 > 100 µM | TK-10 > 100 µM | SK-MEL-5 > 100 µM | M14 > 100 µM | MDA-N > 100 µM

N#Cc1nc(-c2cccc(-c3nc(C#N)c(N)o3)n2)oc1N
inactive: A549 > 100 µM | HT-29 > 100 µM | T47D > 100 µM | 786-0 > 100 µM | SF-539 > 100 µM | SF-295 > 100 µM | SNB-19 > 100 µM | SNB-75 > 100 µM | HL-60 64.7 µM | SF-268 > 100 µM | SK-MEL-2 > 100 µM | MDA-MB-231 > 100 µM | CAKI-1 > 100 µM | DU-145 > 100 µM | UACC-257 > 100 µM | TK-10 > 100 µM | SK-MEL-5 > 100 µM | M14 > 100 µM | MDA-N > 100 µM

Cc1cc(S(=O)(=O)Nc2nc3ccccc3[nH]2)c(S)cc1Cl
inactive: A549 45.2 µM | HT-29 > 100 µM | T47D 41.4 µM | 786-0 46.5 µM | SF-539 > 100 µM | SF-295 53.1 µM | SNB-19 72.3 µM | SNB-75 > 100 µM | HL-60 35.5 µM | SF-268 64.7 µM | SK-MEL-2 30.9 µM | MDA-MB-231 58.6 µM | CAKI-1 45 µM | DU-145 > 100 µM | UACC-257 > 100 µM | TK-10 > 100 µM | SK-MEL-5 35.2 µM | M14 > 100 µM | MDA-N > 100 µM

Nc1ccc(C(=O)O)cc1.Nc1nc(N)c2nc[nH]c2n1
inactive: A549 13.3 µM | HT-29 20.4 µM | T47D 3.27 µM | 786-0 26.7 µM | SF-539 > 100 µM | SF-295 25 µM | SNB-19 40.7 µM | SNB-75 2.44 µM | HL-60 31.4 µM | SF-268 60.8 µM | SK-MEL-2 22.9 µM | MDA-MB-231 45.4 µM | CAKI-1 13.6 µM | DU-145 13.8 µM | UACC-257 17.5 µM | TK-10 19.8 µM | SK-MEL-5 21.5 µM | M14 10.7 µM | MDA-N 13.9 µM

NCCN1C(=O)c2cc(Cl)c(Cl)cc2C1(O)c1ccc(Cl)cc1 (stereo not drawn)
inactive: A549 2.09 µM | HT-29 1.89 µM | T47D 2.11 µM | 786-0 1.61 µM | SF-539 1.7 µM | SF-295 2.01 µM | SNB-19 2.82 µM | SNB-75 2.28 µM | HL-60 1.67 µM | SF-268 2.32 µM | SK-MEL-2 1.84 µM | MDA-MB-231 2.01 µM | CAKI-1 2.54 µM | DU-145 2.69 µM | UACC-257 1.87 µM | TK-10 1.92 µM | SK-MEL-5 1.6 µM | M14 1.77 µM | MDA-N 1.85 µM

CCC(C#N)N(Cc1cccc(CN(C(C)=O)C(C#N)CC)c1)C(C)=O (stereo not drawn)
inactive: A549 > 100 µM | HT-29 7.57 µM | T47D 7.24 µM | 786-0 > 100 µM | SF-539 > 100 µM | SF-295 > 100 µM | SNB-19 > 100 µM | SNB-75 12 µM | HL-60 > 100 µM | SF-268 > 100 µM | SK-MEL-2 > 100 µM | MDA-MB-231 46.6 µM | CAKI-1 > 100 µM | DU-145 > 100 µM | UACC-257 > 100 µM | TK-10 > 100 µM | SK-MEL-5 > 100 µM | M14 > 100 µM | MDA-N > 100 µM
